Measured values: patent US10231463B2, “Food mass suitable for microwaving” (Chemische Fabrik Budenheim KG, priority 2013, dated 2019)

How the values were obtained:
[1] = Pore volume by nitrogen gas adsorption (BJH method, BELSORP-mini II); type: physicochemical; settings: total pore volume Vp, nitrogen adsorption at 77.3 K
Source text: Determining the Pore Volume
The pore volume in accordance with the present invention is characterised by means of gas adsorption. The recording of physisorption isotherms (adsorption and desorption isotherms) of inert gas molecules at low temperatures is routinely used for determining solids parameters.
The BJH method provides an algorithm for the calculation of pore width distribution from nitrogen adsorption data on the assumption of a cylindrical pore geometry. In that respect consideration is given to the change in the adsorbed volume in the pores in dependence on the pore radius, wherein the pore radius distribution function is related as a relative value to the total pore volume. […] It is assumed that the entire pore system is filled with a capillary condensate.

[2] = Thawing and baking trials with yeast-raised wheat frozen doughs in a microwave oven; settings: yeast-raised wheat frozen dough; for ΔT (temperature difference between crust temperature and crumb temperature): 2 parts by weight additive, 600 watts, 120 seconds; for Microwave activity: assessment scale from ΔT
Experimental: Dough Composition (Basic Recipe):
In addition 2 parts by weight of microwave absorber were added to the basic recipe.
• Mixing and kneading time: 3+2 minutes (the latter in a Stephan mixer) • Dough standing time: 20 minutes • Dough piece weight: 200 g • Cooking time of the dough pieces: 20 minutes • Freezing time: about 4 hours • Deep freeze storage time: about 2 days Thawing and Baking Trials:
The deep-frozen dough pieces were exposed to microwave radiation in a microwave oven from Panasonic (model: NN-GD560M—inverter microwave) for a predetermined period of 120 seconds and with a predetermined microwave power of 600 watts (according to the device indication). After 2 minutes of standing time the temperature of the crust and the crumb was measured by means of an infrared temperature sensor at various measurement points on the dough piece.
Measurement value 1 (M1)=average crust temperature outside
Measurement value 2 (M2)=average crumb temperature in the interior of the dough piece.

[3] = Solubility of the additive in water at 20° C.; type: physicochemical

Molecule	Pore Volume [1]	ΔT (temperature difference between crust temperature and crumb temperature) [2]	Microwave activity [2]	Solubility [3]
Sodium aluminium phosphate 1:3:8 NaH14Al3(PO4)8 [SALP 1]	13 10^−3 cm^3/g	29.6 °C	2 (ΔT=25 to 40° C.=good)	15 mg/mL
Magnesium metaphosphate [MMP]	5.1 10^−3 cm^3/g	38.4 °C	2 (ΔT=25 to 40° C.=good)	<0.1 mg/mL
O=P(O)(O)OP(=O)(O)OP(=O)(O)O [STPP(V), Sodium tripolyphosphate, reference compound]	1.1 10^−3 cm^3/g	12.6 °C	3 (ΔT=<25° C.=no additional activity)	145 mg/mL
